The text below walks through data of patent publication US20260297085A1, “1 H-PYRROLO[2,3-B]PYRIDIN-4-YL]-2-OXOPYRROLIDINE-3-CARBONITRILE DERIVATIVES AS TYROSINE KINASE 2 (TYK2) INHIBITORS FOR THE TREATMENT OF INFLAMMATORY DISEASES” (BIOGEN MA INC., priority 2023, published 2026).

Common to all, as to details: JH1 kinase domain, ADP-Glo
A general note: In ADP-Glo the light output rises with the ADP produced.

Assay [1] addresses T1, human TYK2 kinase domain (JH1) (Homo sapiens, UniProt P29597).
T1 construct: recombinantly generated catalytic kinase (also known as JH1) domain of human JAK1, JAK2, JAK3 and TYK2
T1 sequence (P29597 897-1176 limits assumed): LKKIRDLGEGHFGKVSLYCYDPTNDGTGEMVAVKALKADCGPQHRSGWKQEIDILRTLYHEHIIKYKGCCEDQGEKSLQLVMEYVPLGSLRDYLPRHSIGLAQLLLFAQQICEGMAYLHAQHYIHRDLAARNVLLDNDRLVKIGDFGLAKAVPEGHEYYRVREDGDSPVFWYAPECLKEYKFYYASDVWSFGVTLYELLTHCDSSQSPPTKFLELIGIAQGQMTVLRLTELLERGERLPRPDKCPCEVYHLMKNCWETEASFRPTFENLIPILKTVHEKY
Kind of assay: JH1 biochemical assay for TYK2 (ADP-Glo kinase assay, recombinant JH1 catalytic domain, JAK3-974 peptide, 10 μM ATP). Here is the method: (§1) Compounds of the disclosure were assessed for their ability to inhibit TYK2, JAK1, JAK2, and JAK3 activity. The inhibitory properties of the compounds of the disclosure described herein can be evidenced by testing in any one of the following protocols.
(§2) The kinase activity of recombinantly generated catalytic kinase (also known as JH1) domain of human JAK1, JAK2, JAK3 and TYK2 were evaluated in a plate-based assay using the ADP-Glo™ Kinase Assay platform. Specifically, 4 nM of recombinant JAK1 kinase domain is used to phosphorylate 50 μM of a JAK3-342 (sequence ALVDGYFRLTT) peptide in the presence of 35 μM ATP. Catalytic activities of recombinant JAK2, JAK3 and TYK2 kinase domain (0.2, 0.3 and 2 nM, respectively) are evaluated by the phosphorylation status of the JAK3-974 (50 μM; sequence LPLDKDYYVVR) peptide with the addition of ATP (15, 4 and 10 μM, respectively). The reactions proceed for 100 minutes and the catalytic activity is quantified by first depleting the unused ATP, converting the hydrolyzed ADP into ATP to generate luminescence in a luciferase reaction; which is the basis of the ADP-Glo platform. Compounds are tested at either 10 μM or 1 μM top concentration, 11 points of 3-fold dilution. The data is normalized and the percent activity versus log concentration of compound is fitted with a 4-parameter logistic model to generate a curve and an IC50 value.

For assay [2], the target named is T2, human JAK1 kinase domain (JH1) (Homo sapiens, UniProt P23458).
T2 construct: recombinantly generated catalytic kinase (also known as JH1) domain of human JAK1, JAK2, JAK3 and TYK2
Kind of assay: JH1 biochemical assay for JAK1 (ADP-Glo kinase assay, recombinant JH1 catalytic domain, JAK3-342 peptide, 35 μM ATP). Here is the method:
as §1, §2

Assay [3] addresses T3, human JAK2 kinase domain (JH1) (Homo sapiens, UniProt O60674).
T3 construct: recombinantly generated catalytic kinase (also known as JH1) domain of human JAK1, JAK2, JAK3 and TYK2
The assay can be described thus: JH1 biochemical assay for JAK2 (ADP-Glo kinase assay, recombinant JH1 catalytic domain, JAK3-974 peptide, 15 μM ATP). Here is the method:
as §1, §2

In assay [4] the target is T4, human JAK3 kinase domain (JH1) (Homo sapiens, UniProt P52333).
T4 construct: recombinantly generated catalytic kinase (also known as JH1) domain of human JAK1, JAK2, JAK3 and TYK2
The assay can be described thus: JH1 biochemical assay for JAK3 (ADP-Glo kinase assay, recombinant JH1 catalytic domain, JAK3-974 peptide, 4 μM ATP). Here is the method: as §1, §2

pIC50: −log10 of the molar value.

T2 sequence (P23458 875-1153 limits assumed): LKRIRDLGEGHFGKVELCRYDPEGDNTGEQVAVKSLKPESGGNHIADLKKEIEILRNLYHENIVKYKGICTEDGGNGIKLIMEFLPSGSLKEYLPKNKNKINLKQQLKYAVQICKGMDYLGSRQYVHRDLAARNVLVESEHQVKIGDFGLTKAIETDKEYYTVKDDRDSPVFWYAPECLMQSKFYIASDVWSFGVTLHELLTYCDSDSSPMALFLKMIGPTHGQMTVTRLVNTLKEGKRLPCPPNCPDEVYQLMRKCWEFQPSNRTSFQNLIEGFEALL
T4 sequence (P52333 822-1111 limits assumed): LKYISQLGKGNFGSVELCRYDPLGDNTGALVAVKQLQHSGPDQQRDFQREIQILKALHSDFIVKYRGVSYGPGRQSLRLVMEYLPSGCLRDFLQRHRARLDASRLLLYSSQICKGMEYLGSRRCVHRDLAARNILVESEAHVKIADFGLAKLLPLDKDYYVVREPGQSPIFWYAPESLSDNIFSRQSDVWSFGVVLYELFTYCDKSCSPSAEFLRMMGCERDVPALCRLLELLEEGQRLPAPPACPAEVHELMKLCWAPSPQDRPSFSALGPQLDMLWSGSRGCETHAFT
T3 sequence (O60674 849-1124 limits assumed): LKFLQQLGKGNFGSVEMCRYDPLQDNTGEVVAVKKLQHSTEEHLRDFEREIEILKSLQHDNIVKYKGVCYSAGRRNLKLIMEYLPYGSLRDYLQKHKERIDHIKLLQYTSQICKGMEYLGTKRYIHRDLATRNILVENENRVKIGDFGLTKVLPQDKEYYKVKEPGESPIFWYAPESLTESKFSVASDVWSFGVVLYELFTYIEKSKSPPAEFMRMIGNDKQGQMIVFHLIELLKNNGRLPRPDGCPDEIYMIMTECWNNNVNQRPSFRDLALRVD

In the case of `Cn1cc(-c2cc3c(N4C[C@H](C(F)F)[C@@](C#N)(C5CC5)C4=O)ccnn3c2)cn1` (racemic) [Example 152, rac-(3R,4R)-3-cyclopropyl-4-(difluoromethyl)-1-(6-(1-methyl-1H-pyrazol-4-yl)pyrrolo[1,2-b]pyridazin-4-yl)-2-oxopyrrolidine-3-carbonitrile], the negative-log IC50 (pIC50) in assay [1] is less than 7.00; in assay [2], 5.30 to 6.00; in assay [3], 5.30 to 6.00; in assay [4], 5.30 to 6.00.

On to `Cn1cc(-c2cc3c(N4CC[C@H](C5CC5)C4=O)ccnn3c2)cn1` (single isomer, unassigned) [Example 36], for which the negative logarithm of the IC50 (pIC50) in assay [1] is less than 7.00; in assay [2] it was less than 5.00; in assay [3], 5.00 to 5.30; in assay [4], less than 5.00.

For `Cn1cc(-c2cc3c(N4CC[C@@H](C5CC5)C4=O)ccnn3c2)cn1` (single isomer, unassigned) [Example 37], the negative-log IC50 (pIC50) was less than 7.00 in assay [1], less than 5.00 in assay [2], 5.30 to 6.00 in assay [3] and 5.30 to 6.00 in assay [4].

`Cn1cc(-c2cc3c(N4CC[C@@](C)(C#N)C4=O)ccnn3c2)cn1` (single isomer, unassigned) [Example 38]: the pIC50 was 7.00 to 7.30 in assay [1], 5.30 to 6.00 in assay [2], 5.30 to 6.00 in assay [3] and 5.30 to 6.00 in assay [4].

Take `Cn1cc(-c2cc3c(N4CC[C@](C)(C#N)C4=O)ccnn3c2)cn1` (single isomer, unassigned) [Example 39]: the pIC50 in assay [1] was less than 7.00; in assay [2], less than 5.00; in assay [3], less than 5.00; in assay [4], less than 5.00.

In the case of `COC[C@]1(C#N)CCN(c2ccnn3cc(-c4cnn(C)c4)cc23)C1=O` (single isomer, unassigned) [Example 41], the negative logarithm of the IC50 (pIC50) in assay [1] was less than 7.00; in assay [2] it was less than 5.00; in assay [3] it was 5.00 to 5.30; in assay [4], 5.00 to 5.30.

With `CC[C@]1(C#N)CCN(c2ccnn3cc(-c4cnn(C)c4)cc23)C1=O` (single isomer, unassigned) [Example 42], the pIC50 is 7.00 to 7.30 in assay [1], 5.30 to 6.00 in assay [2], 5.30 to 6.00 in assay [3] and 5.30 to 6.00 in assay [4].

As for `CC[C@@]1(C#N)CCN(c2ccnn3cc(-c4cnn(C)c4)cc23)C1=O` (single isomer, unassigned) [Example 43], the pIC50 in assay [1] is less than 7.00; in assay [2], less than 5.00; in assay [3], less than 5.00; in assay [4], less than 5.00.

In the case of `Cn1cc(-c2cc3c(N4CC[C@](C#N)(C5COC5)C4=O)ccnn3c2)cn1` (single isomer, unassigned) [Example 44], the negative-log IC50 (pIC50) was less than 7.00 in assay [1], less than 5.00 in assay [2], less than 5.00 in assay [3] and less than 5.00 in assay [4].

`Cn1cc(-c2cc3c(N4CC[C@@](C#N)(C5COC5)C4=O)ccnn3c2)cn1` (single isomer, unassigned) [Example 45]: the pIC50 is less than 7.00 in assay [1], less than 5.00 in assay [2], less than 5.00 in assay [3] and less than 5.00 in assay [4].

For `Cn1cc(-c2cc3c(N4CC[C@@](C#N)(C5CCC5)C4=O)ccnn3c2)cn1` (single isomer, unassigned) [Example 46], the pIC50 is less than 7.00 in assay [1], 5.00 to 5.30 in assay [2], 5.30 to 6.00 in assay [3] and 6.00 to 7.00 in assay [4].

Turning to `Cn1cc(-c2cc3c(N4CC[C@](C#N)(C5CCC5)C4=O)ccnn3c2)cn1` (single isomer, unassigned) [Example 47], the pIC50 is less than 7.00 in assay [1], less than 5.00 in assay [2], 5.00 to 5.30 in assay [3] and less than 5.00 in assay [4].

Turning to `Cn1cc(-c2cc3c(N4CC[C@](C#N)(C5CC5)C4=O)ccnc3[nH]2)cn1` [Example 2, (R)-3-cyclopropyl-1-(2-(1-methyl-1H-pyrazol-4-yl)-1H-pyrrolo[2,3-b]pyridin-4-yl)-2-oxopyrrolidine-3-carbonitrile], the pIC50 in assay [1] is 7.00 to 7.30; in assay [2], 6.00 to 7.00; in assay [3] it was 6.00 to 7.00; in assay [4], 5.30 to 6.00.

With `Cn1cc(-c2cc3c(N4CCC(C#N)C4=O)ccnn3c2)cn1` (centres unmarked) [Example 7, 1-(6-(1-methyl-1H-pyrazol-4-yl)pyrrolo[1,2-b]pyridazin-4-yl)-2-oxopyrrolidine-3-carbonitrile], the negative-log IC50 (pIC50) is less than 7.00 in assay [1], less than 5.00 in assay [2], 5.00 to 5.30 in assay [3] and 5.00 to 5.30 in assay [4].

`COc1cc(-c2cc3c(N4CC[C@](C#N)(C5CC5)C4=O)ccnn3c2)ccn1` [Example 13, (R)-3-cyclopropyl-1-(6-(2-methoxypyridin-4-yl)pyrrolo[1,2-b]pyridazin-4-yl)-2-oxopyrrolidine-3-carbonitrile]: the pIC50 in assay [1] is less than 7.00; in assay [2], 5.00 to 5.30; in assay [3] it was less than 5.00; in assay [4], less than 5.00.

In the case of `Cn1cc(-c2cc3c(N4CC[C@](C#N)(C5CC5)C4=O)ccnn3c2)cn1` [Example 14, (R)-3-cyclopropyl-1-(6-(1-methyl-1H-pyrazol-4-yl)pyrrolo[1,2-b]pyridazin-4-yl)-2-oxopyrrolidine-3-carbonitrile], the pIC50 in assay [1] is less than 7.00; in assay [2] it was less than 5.00; in assay [3], 5.00 to 5.30; in assay [4], less than 5.00.

For `Cn1cc(-c2cc3c(N4CC[C@@](C(F)F)(C5CC5)C4=O)ccnn3c2)cn1` [Example 15, (R)-3-cyclopropyl-3-(difluoromethyl)-1-(6-(1-methyl-1H-pyrazol-4-yl)pyrrolo[1,2-b]pyridazin-4-yl)pyrrolidin-2-one], the pIC50 in assay [1] was less than 7.00; in assay [2], 5.30 to 6.00; in assay [3], 5.30 to 6.00; in assay [4] it was 5.30 to 6.00.

Take `C[C@@H]1C[C@](C#N)(C2CC2)C(=O)N1c1ccnn2cc(-c3cnn(C)c3)cc12` [Example 16, (3R,5R)-3-cyclopropyl-5-methyl-1-(6-(1-methyl-1H-pyrazol-4-yl)pyrrolo[1,2-b]pyridazin-4-yl)-2-oxopyrrolidine-3-carbonitrile]: the pIC50 in assay [1] was less than 7.00; in assay [2], 5.00 to 5.30; in assay [3] it was 6.00 to 7.00; in assay [4] it was less than 5.00.

Take `C[C@@H]1C[C@@](C#N)(C2CC2)C(=O)N1c1ccnn2cc(-c3cnn(C)c3)cc12` [Example 17, (3S,5R)-3-cyclopropyl-5-methyl-1-(6-(1-methyl-1H-pyrazol-4-yl)pyrrolo[1,2-b]pyridazin-4-yl)-2-oxopyrrolidine-3-carbonitrile]: the pIC50 in assay [1] was less than 7.00; in assay [2] it was 5.30 to 6.00; in assay [3], 6.00 to 7.00; in assay [4] it was 5.00 to 5.30.

With `CC[C@@H]1C[C@@](C#N)(C2CC2)C(=O)N1c1ccnn2cc(-c3cnn(C)c3)cc12` [Example 18, (3S,5R)-3-cyclopropyl-5-ethyl-1-(6-(1-methyl-1H-pyrazol-4-yl)pyrrolo[1,2-b]pyridazin-4-yl)-2-oxopyrrolidine-3-carbonitrile], the pIC50 in assay [1] is less than 7.00; in assay [2], 5.30 to 6.00; in assay [3], 6.00 to 7.00; in assay [4] it was 5.30 to 6.00.

For orientation: pIC50 means −log10 of the IC50, conventionally taken in molar units.
